Measured values published in the NIST ThermoML archive (doi:10.1007/s10765-014-1617-1).
Numbers after ± are expanded uncertainties.

Experiments:
[1] = 101.33 kPa, Liquid; for thermal conductivity: Parallel plate method; for mass density: Vibrating tube method
[2] = refractive index (Na D-line) (dimensionless); details: 101.33 kPa, Liquid, Standard Abbe refractometry

Row | SMILES | thermal conductivity ([1]; 283.15 K) [W/m/K] | mass density ([1]; 283.15 K) [kg/m3] | mass density ([1]; 288.15 K) [kg/m3] | thermal conductivity ([1]; 293.15 K) [W/m/K] | mass density ([1]; 293.15 K) [kg/m3] | mass density ([1]; 298.15 K) [kg/m3] | thermal conductivity ([1]; 303.15 K) [W/m/K] | mass density ([1]; 303.15 K) [kg/m3] | mass density ([1]; 308.15 K) [kg/m3] | thermal conductivity ([1]; 313.15 K) [W/m/K] | mass density ([1]; 313.15 K) [kg/m3] | mass density ([1]; 318.15 K) [kg/m3] | thermal conductivity ([1]; 323.15 K) [W/m/K] | mass density ([1]; 323.15 K) [kg/m3] | mass density ([1]; 328.15 K) [kg/m3] | thermal conductivity ([1]; 333.15 K) [W/m/K] | mass density ([1]; 333.15 K) [kg/m3] | mass density ([1]; 338.15 K) [kg/m3] | thermal conductivity ([1]; 343.15 K) [W/m/K] | thermal conductivity ([1]; 353.15 K) [W/m/K] | further results
1 | CCCCn1cc[n+](C)c1.N#C[B-](C#N)(C#N)C#N [1-butyl-3-methyl-1H-imidazolium tetracyanoborate] | 0.178 ± 0.006 | 1021.17 ± 0.3 | 1017.37 ± 0.3 | 0.1791 ± 0.006 | 1013.59 ± 0.3 | 1009.83 ± 0.3 | 0.1756 ± 0.0059 | 1006.09 ± 0.29 | 1002.37 ± 0.29 | 0.1737 ± 0.0058 | 998.67 ± 0.29 | 995 ± 0.29 | 0.1732 ± 0.0058 | 991.34 ± 0.29 | 987.71 ± 0.29 | 0.1693 ± 0.0057 | 984.09 ± 0.29 | 980.5 ± 0.29 | 0.1664 ± 0.0056 | 0.1632 ± 0.0055 | mass density ([1]; 343.15 K): 976.92 ± 0.29 kg/m3; mass density ([1]; 348.15 K): 973.37 ± 0.29 kg/m3; mass density ([1]; 353.15 K): 969.82 ± 0.29 kg/m3; mass density ([1]; 358.15 K): 966.3 ± 0.29 kg/m3; mass density ([1]; 363.15 K): 962.8 ± 0.28 kg/m3; refractive index ([2]; 283.15 K): 1.4561 ± 0.0006; refractive index ([2]; 293.15 K): 1.4533 ± 0.0006; refractive index ([2]; 303.15 K): 1.45 ± 0.0006; refractive index ([2]; 313.15 K): 1.4473 ± 0.0006
2 | CCCCCCCCCCn1cc[n+](C)c1.N#C[B-](C#N)(C#N)C#N [1-decyl-3-methyl-1H-imidazolium tetracyanoborate] | 0.1665 ± 0.0056 | 972.81 ± 0.29 | 969.36 ± 0.29 | 0.1673 ± 0.0056 | 965.94 ± 0.28 | 962.51 ± 0.28 | 0.1667 ± 0.0056 | 959.09 ± 0.28 | 955.68 ± 0.28 | 0.1646 ± 0.0055 | 952.29 ± 0.28 | 948.91 ± 0.28 | 0.164 ± 0.0055 | 945.54 ± 0.28 | 942.19 ± 0.28 | 0.1613 ± 0.0054 | 938.85 ± 0.28 | 935.53 ± 0.28 | 0.16 ± 0.0054 | 0.1586 ± 0.0053 | mass density ([1]; 343.15 K): 932.22 ± 0.28 kg/m3; mass density ([1]; 348.15 K): 928.94 ± 0.28 kg/m3; mass density ([1]; 353.15 K): 925.65 ± 0.28 kg/m3; mass density ([1]; 358.15 K): 922.39 ± 0.28 kg/m3; mass density ([1]; 363.15 K): 919.14 ± 0.28 kg/m3; refractive index ([2]; 283.15 K): 1.4612 ± 0.0006; refractive index ([2]; 293.15 K): 1.4584 ± 0.0006; refractive index ([2]; 303.15 K): 1.4552 ± 0.0006; refractive index ([2]; 313.15 K): 1.4522 ± 0.0006
3 | CCn1cc[n+](C)c1.N#C[C-](C#N)C#N [1-ethyl-3-methyl-1H-imidazolium tricyanomethanide] | 0.1966 ± 0.0066 | 1091.96 ± 1 | 1088.37 ± 1 | 0.1958 ± 0.0066 | 1084.8 ± 1 | 1081.25 ± 1 | 0.1955 ± 0.0066 | 1077.71 ± 1 | 1074.19 ± 0.99 | 0.1928 ± 0.0065 | 1070.69 ± 0.98 | 1067.21 ± 0.98 | 0.1917 ± 0.0064 | 1063.74 ± 0.97 | 1060.29 ± 0.96 | 0.1896 ± 0.0064 | 1056.86 ± 0.95 | 1053.44 ± 0.95 | 0.1883 ± 0.0063 | 0.1874 ± 0.0063 | mass density ([1]; 343.15 K): 1050.04 ± 0.94 kg/m3; mass density ([1]; 348.15 K): 1046.66 ± 0.93 kg/m3; mass density ([1]; 353.15 K): 1043.28 ± 0.93 kg/m3; mass density ([1]; 358.15 K): 1039.93 ± 0.92 kg/m3; mass density ([1]; 363.15 K): 1036.58 ± 0.91 kg/m3; refractive index ([2]; 283.15 K): 1.516 ± 0.0007; refractive index ([2]; 293.15 K): 1.5131 ± 0.0007; refractive index ([2]; 303.15 K): 1.5101 ± 0.0007; refractive index ([2]; 313.15 K): 1.5071 ± 0.0007
4 | CCCCCCn1cc[n+](C)c1.N#C[B-](C#N)(C#N)C#N [1-hexyl-3-methylimidazolium tetracyanoborate] | 0.1762 ± 0.0059 |  |  | 0.1752 ± 0.0059 |  |  | 0.1741 ± 0.0058 |  |  | 0.1714 ± 0.0057 |  |  | 0.1722 ± 0.0058 |  |  | 0.1697 ± 0.0057 |  |  | 0.1677 ± 0.0056 | 0.1656 ± 0.0056 | 
5 | CCCCCCCCn1cc[n+](C)c1.N#C[B-](C#N)(C#N)C#N [1-methyl-3-octylimidazolium tetracyanoborate] | 0.1703 ± 0.0057 | 985.65 ± 0.29 | 982.14 ± 0.29 | 0.1694 ± 0.0057 | 978.62 ± 0.29 | 975.1 ± 0.29 | 0.1682 ± 0.0056 | 971.6 ± 0.29 | 968.12 ± 0.29 | 0.1644 ± 0.0055 | 964.65 ± 0.28 | 961.2 ± 0.28 | 0.1586 ± 0.0053 | 957.76 ± 0.28 | 954.34 ± 0.28 | 0.1573 ± 0.0053 | 950.94 ± 0.28 | 947.55 ± 0.28 | 0.1543 ± 0.0052 | 0.1513 ± 0.0051 | mass density ([1]; 343.15 K): 944.17 ± 0.28 kg/m3; mass density ([1]; 348.15 K): 940.82 ± 0.28 kg/m3; mass density ([1]; 353.15 K): 937.45 ± 0.28 kg/m3; mass density ([1]; 358.15 K): 934.15 ± 0.28 kg/m3; mass density ([1]; 363.15 K): 930.84 ± 0.28 kg/m3; refractive index ([2]; 283.15 K): 1.4603 ± 0.0006; refractive index ([2]; 293.15 K): 1.457 ± 0.0006; refractive index ([2]; 303.15 K): 1.4541 ± 0.0006; refractive index ([2]; 313.15 K): 1.4509 ± 0.0006
6 | CCCCCCCCn1cc[n+](C)c1.N#CC(=C=[N-])C#N [1-methyl-3-octylimidazolium tricyanomethanide] | 0.1717 ± 0.0058 | 1010.18 ± 0.86 | 1006.97 ± 0.85 | 0.1689 ± 0.0057 | 1003.75 ± 0.85 | 1000.54 ± 0.84 | 0.1675 ± 0.0057 | 997.34 ± 0.83 | 994.15 ± 0.83 | 0.1685 ± 0.0057 | 990.97 ± 0.83 | 987.8 ± 0.82 | 0.1678 ± 0.0057 | 984.65 ± 0.82 | 981.5 ± 0.82 | 0.1655 ± 0.0056 | 978.37 ± 0.81 | 975.25 ± 0.81 | 0.1642 ± 0.0056 | 0.1639 ± 0.0056 | mass density ([1]; 343.15 K): 972.14 ± 0.8 kg/m3; mass density ([1]; 348.15 K): 969.05 ± 0.8 kg/m3; mass density ([1]; 353.15 K): 965.97 ± 0.8 kg/m3; mass density ([1]; 358.15 K): 962.89 ± 0.79 kg/m3; mass density ([1]; 363.15 K): 959.82 ± 0.79 kg/m3; refractive index ([2]; 283.15 K): 1.5048 ± 0.0007; refractive index ([2]; 293.15 K): 1.5021 ± 0.0007; refractive index ([2]; 303.15 K): 1.4993 ± 0.0007; refractive index ([2]; 313.15 K): 1.4964 ± 0.0007
7 | CCCCCCCCCC[n+]1ccn(C)c1.N#C[C-](C#N)C#N [3-decyl-1-methylimidazolium tricyanomethanide] | 0.168 ± 0.0057 | 992.5 ± 0.83 | 989.38 ± 0.82 | 0.1694 ± 0.0057 | 986.25 ± 0.82 | 983.11 ± 0.82 | 0.1674 ± 0.0057 | 979.98 ± 0.81 | 976.85 ± 0.81 | 0.1676 ± 0.0057 | 973.73 ± 0.81 | 970.63 ± 0.8 | 0.1673 ± 0.0057 | 967.53 ± 0.8 | 964.44 ± 0.8 | 0.1646 ± 0.0056 | 961.37 ± 0.79 | 958.31 ± 0.79 | 0.162 ± 0.0055 | 0.1593 ± 0.0054 | mass density ([1]; 343.15 K): 955.24 ± 0.79 kg/m3; mass density ([1]; 348.15 K): 952.2 ± 0.78 kg/m3; mass density ([1]; 353.15 K): 949.17 ± 0.78 kg/m3; mass density ([1]; 358.15 K): 946.15 ± 0.77 kg/m3; mass density ([1]; 363.15 K): 943.13 ± 0.77 kg/m3; refractive index ([2]; 283.15 K): 1.5008 ± 0.0007; refractive index ([2]; 293.15 K): 1.4981 ± 0.0007; refractive index ([2]; 303.15 K): 1.495 ± 0.0007; refractive index ([2]; 313.15 K): 1.4918 ± 0.0007
8 | CCCCCC[n+]1ccn(C)c1.N#C[C-](C#N)C#N [3-hexyl-1-methylimidazolium tricyanomethanide] | 0.1817 ± 0.0061 | 1030.55 ± 0.9 | 1027.22 ± 0.89 | 0.1815 ± 0.0061 | 1023.92 ± 0.89 | 1020.62 ± 0.88 | 0.1831 ± 0.0062 | 1017.35 ± 0.87 | 1014.08 ± 0.87 | 0.1817 ± 0.0061 | 1010.83 ± 0.86 | 1007.58 ± 0.85 | 0.181 ± 0.0061 | 1004.35 ± 0.85 | 1001.14 ± 0.84 | 0.1792 ± 0.006 | 997.93 ± 0.84 | 994.74 ± 0.83 | 0.1774 ± 0.006 | 0.1762 ± 0.0059 | mass density ([1]; 343.15 K): 991.57 ± 0.83 kg/m3; mass density ([1]; 348.15 K): 988.4 ± 0.82 kg/m3; mass density ([1]; 353.15 K): 985.24 ± 0.82 kg/m3; mass density ([1]; 358.15 K): 982.11 ± 0.82 kg/m3; mass density ([1]; 363.15 K): 978.98 ± 0.81 kg/m3; refractive index ([2]; 283.15 K): 1.5084 ± 0.0007; refractive index ([2]; 293.15 K): 1.5055 ± 0.0007; refractive index ([2]; 303.15 K): 1.5026 ± 0.0007; refractive index ([2]; 313.15 K): 1.4994 ± 0.0007
